In ChEMBL document CHEMBL4014263, “Diterpenoids and Lignans from Cephalotaxus fortunei” (J Nat Prod, 2017):

What was measured:
[1] = system: HL-60; experiment: Cytotoxicity against human HL60 cells assessed as growth inhibition at 10 uM by MTT assay relative to control; assay type: functional; conditions: read-out: GI
[2] = system: A549; experiment: Cytotoxicity against human A549 cells assessed as growth inhibition at 10 uM by SRB assay relative to control; assay type: functional; conditions: read-out: GI
[3] = system: HL-60; experiment: Cytotoxicity against human HL60 cells by MTT assay; assay type: functional, cell-based
[4] = system: A549; experiment: Cytotoxicity against human A549 cells by SRB assay; assay type: functional, cell-based

| Compound | inhibition of growth at 10 µM [1] [%] | inhibition of growth at 10 µM [2] [%] | IC50 [3] [nM] | IC50 [4] [nM] |
| --- | --- | --- | --- | --- |
| C[C@@H]1[C@@H](O)[C@@H]2OC(=O)[C@]13CC[C@@H]1C[C@H](O)C[C@H](C)C4=C1[C@@H]3[C@@H]2C4=O | < 50 | < 50 | – | – |
| Cc1cc(=O)cc2c3c1C[C@@H]1[C@H]4OC(=O)[C@](CC2)([C@H](C)[C@H]4O)[C@]31O | < 50 | < 50 | – | – |
| Cc1cc(=O)cc2c3c1C(=O)[C@@H]1[C@H]4OC(=O)[C@](CC2)([C@H](C)[C@H]4O)[C@H]31 | – | – | 770 | 1130 |
| C[C@@H]1[C@@H](O)[C@@H]2OC(=O)[C@]13CC[C@@H]1C[C@@H](O)C[C@H](C)C4=C1[C@@H]3[C@@H]2C4=O | < 50 | < 50 | – | – |
| Cc1cc(=O)cc2c3c1[C@@H](O)[C@@H]1[C@H]4OC(=O)[C@](CC2)([C@H](C)[C@H]4O)[C@H]31 | < 50 | < 50 | – | – |
| COc1ccc(C[C@@]2(O)C(=O)O[C@@H](c3ccc(OC)c(OC)c3)[C@@H]2CO)cc1OC | < 50 | < 50 | – | – |
| CC(CO)c1cc2c(cc1O)[C@@]1(C)CC[C@H](O)C(C)(C)[C@@H]1CC2=O (stereo not given in full) | < 50 | < 50 | – | – |
| COc1cccc2c1C(=O)c1c(O)c3c(c(O)c1C2=O)C[C@@](O)(C(=O)CO)C[C@@H]3O[C@H]1C[C@H](N)[C@H](O)[C@H](C)O1 [DOXORUBICIN] | – | – | 31 | 124 |
| COc1cc(C[C@@]2(O)C(=O)O[C@@H](c3ccc(O)c(OC)c3)[C@@H]2CO)ccc1O | < 50 | < 50 | – | – |
| COc1cc([C@@H]2Oc3cc(OC)c(OC)cc3[C@H]2CO)ccc1O | < 50 | < 50 | – | – |
